# Patent publication US9521845B2, “Beta-lactones as antibacterial agents” (LUDWIG-MAXIMILIANS-UNIVERSITÄT-MÜNCHEN, priority 2008, dated 2016)
# How the values were obtained:
# ClpP = target: T1, ClpP (Listeria monocytogenes serovar 1/2a, UniProt Q9RQI6); experiment: In vivo labeling of Listeria proteomes; format: cell-based; conditions: living L. monocytogenes EGDe, cytosol, 2 h incubation
# T1 construct: endogenous in cells; host or cells: living Listeria monocytogenes EGDe, stationary phase
# Procedure: For analytical and preparative in vivo studies, Listeria were grown to stationary phase and harvested by centrifugation at 4,000 rpm 1 h after entrance in the stationary phase (1.5 ml for analytical and 15 ml for preparative studies). The cell pellets were washed once with PBS and resuspended in 100 μL and 500 μL PBS for analytical and preparative studies, respectively. The cell suspensions were incubated for 2 h with varying concentrations of probe at room temperature. Probes were applied from DMSO stocks whereby DMSO never exceeded 2% in the final solution. For preparative experiments, 50 μM of the probes was added to the cells resuspended in PBS. After incubation, the cells were washed thoroughly three times with PBS to remove excess probe from the supernatant. Subsequently the cells were lysed in 100 μL (500 μL) PBS by sonication with a Bandelin Sonopuls with 3×20 sec. pulsed at 70% max. power. For analytical experiments 44 μL proteome were used to append a reporter tag via CC, such that once CC reagents were added, the total reaction volume was 50 μL. In preparative purposes the total volume of 500 μL it was consumed per experiment. Reporter tagged-azide reagents (13 μM rhodamine-azide for analytical or 20 μM rhodamine-biotin-azide for preparative scale) were added followed by 1 mM TCEP and 100 μM ligand. Samples were gently vortexed and the cycloaddition initiated by the addition of 1 mM CuSO4. The reactions were incubated at room temperature for 1 h. For analytical gel electrophoresis, 50 μL 2×SDS loading buffer were added and 50 μL applied on the gel. Fluorescence was recorded in a Fujifilm Las-3000 Fluoreszenz Darkbox with a Fujinon VRF 43LMD Lens, 605DF40 filter and 520 nm EPI excitation wavelength.
# [1] = system: β-Ketoacyl acyl carrier protein synthase II (KAS II); experiment: ABPP labeling of bacterial proteomes, KAS II; format: binding, L. welshimeri, B. subtilis; conditions: 50 μM probe, FIGS. 9A and 9B
# Source text: The library of beta-lactones to be tested comprised compounds with aliphatic or aromatic substitutions varying in length and branching. To evaluate the target selectivity, the beta-lactones were screened against several gram-positive and gram-negative bacterial proteomes including Pseudomonas putida, Listeria welshimeri, Bacillus licheniformis, Bacillus subtilis and Escherichia coli, which are phylogenetically related to pathogenic strains. In addition, mouse liver cytosol was included as an eukaryotic reference proteome. Initial labeling experiments were carried out by adding individual probes at 50 μM concentration to the proteome which is sufficient to achieve full saturation of most targets. […] As an example, labeling of L. welshimeri cytosolic and membrane proteomes as well as B. subtilis cytosolic proteome with a subset of the most complementary probes is shown in FIGS. 9A and 9B. […] Most of the targeted proteins were of low abundance as shown by the direct comparison of the relative intensities observed with Coomassie staining vs. fluorescence scanning (FIG. 11).
# Proteome samples were adjusted to a final concentration of 1 mg protein/mL by dilution in PBS prior to probe labeling. […]
# [2] = system: extracellular DNase of S. aureus; experiment: DNase assay using DNA containing agar plates; format: cell-based, Staphylococcus aureus; conditions: 250 nmol
# Source text: FIG. 4: Agar plate-based virulence assays.
# A dose down in FIG. 5 indicates the different potencies of structurally diverse ClpP inhibitors for E2, G2 and D3. […] Extracellular DNase also is part of the S. aureus virulence factors. Its purpose is to destroy the hosts DNA and provide a nutritional source for S. aureus.
# [3] = system: LLO haemolytic activity of L. monocytogenes EGDe; experiment: LLO haemolytic activity testing of culture supernatants; format: cell-based, Listeria monocytogenes EGDe; conditions: sheep red blood cells
# Procedure: Overnight cultures of L. monocytogenes EGDe were harvested by centrifugation and resuspended in an equal volume of fresh BHB medium. In 1.5 mL Eppendorf tubes, 400 μL of BHB medium were inoculated with 4 μL of the resuspended Listeria culture and 4 μL of a corresponding beta-lactone stock in DMSO. The final concentrations were 800 μM, 400 μM, 200 μM, 100 μM and DMSO as control. The amount of DMSO in all tests was 1% of the medium. After mixing, the test tubes were incubated under continuous shaking at 200 rpm at 37° C. for 16 h. Then, cells were centrifuged and the supernatants filtered sterile by passing them through a 0.2 μm pore size filter. Haemolytic activity of LLO in the culture supernatants was quantitatively investigated according to a method described in J. Food Safety 1998, 18: 197-203 (incorporated herein by reference) with some modifications. In Nunclon™ 96-well plates with round shaped wells 100 μL of serial dilutions of the supernatants in PBS were added per well and incubated with 100 μL of 3% SRBC (sheep red blood cells) resuspended in PBS for 15 min at 37° C. under gentle shaking. The 96-well plates were centrifuged at 600 rpm for 5 min and the minimum dilution at which intact blood cells began to form a pellet was recorded. Controls with no lactone were set 100%. Buffer only controls and pure BHB medium yielded no haemolysis.
# T1 sequence (Q9RQI6 whole entry): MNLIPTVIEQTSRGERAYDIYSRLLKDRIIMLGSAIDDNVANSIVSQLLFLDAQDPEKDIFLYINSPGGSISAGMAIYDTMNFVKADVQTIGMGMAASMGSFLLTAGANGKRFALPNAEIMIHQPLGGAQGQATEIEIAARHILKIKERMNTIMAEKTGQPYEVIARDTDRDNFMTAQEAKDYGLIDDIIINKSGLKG
smiles,measurement,setting,value
"C#CCCCC1OC(=O)C1CCCCCCCC=C (stereo not drawn) [D3, trans-3-(8-nonen-1-yl)-4-(4-pentyn-1-yl)oxetan-2-one]",ClpP labeling (probe potency ranking),ClpP,most potent probes
same,KAS II labeling,[1],labeled
same,amount of extracellular DNase,[2],effect
same,EC50,"[3]; Listeria monocytogenes, Erythrocyte, cultures grown 16 h with lactone, read-out: EC50 of reduction of LLO haemolytic activity",100 µM
same,reduction (inhibition) of haemolytic activity,[3]; cultures grown 16 h with 100-800 μM lactone,80%
